Test results reported in patent US20240067651A1 (Biohaven Therapeutics Ltd., priority 2019, published 2024).
Each block holds one compound with its values, some of them ahead of it.

How the values were obtained:
[1] = Caco-2 Permeability Assay; type: in vitro ADME, human; conditions: human
In short: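 Caco-2 monolayers cultured 21 days (TEER >600 […]); test article at 10 μM in HBSS/HEPES pH 7.4 transport medium, dosed apical or basolateral, ±Pgp inhibitor. Incubated 90 min at 37 °C; both compartments quantified by LC-MS/MS. Papp (A→B, B→A), efflux ratio and % recovery calculated.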

[2] = Stability in Simulated Gastric Fluid (SGF); type: in vitro ADME; parameters: key: % parent compound remaining relative to 0-minute sample
In short: (§1)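 Stability was tested at 37° C in pepsin-supplemented gastric fluid, pH 1.2, and pancreatin-supplemented intestinal fluid, pH 6.8, using 2 μg/mL final compound over 0–60 minutes. Remaining parent was quantified by LC-MS/MS and expressed as a percentage of time zero.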

Plasma Stability = type: in vitro ADME, human
In short: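 Compounds incubated at 1 μM in fresh human plasma for 1 hour at 37° C, then protein-precipitated with acetonitrile/formic acid containing internal standard. Remaining parent measured by LC-MS/MS in triplicate, expressed as percent of control remaining.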

[3] = Stability in Simulated Intestinal Fluid (SIF); type: in vitro ADME; parameters: key: % parent compound remaining relative to 0-minute sample
In short: as §1

[4] = Caco-2, pH 7.4, Caco-2 monolayer
[5] = % remaining at 1 h in simulated gastric fluid
[6] = % remaining at 1 h in human plasma
[7] = % remaining at 1 h in simulated intestinal fluid
[8] = Caco-2, pH 7.4, donor 10 μM, 90 minutes, 37° C., direction not given
[9] = % remaining at 1 h, SGF with pepsin pH 1.2, 2 μg/mL, 37° C.
[10] = % remaining at 1 h, human plasma, 1 μM, 37° C.
[11] = % remaining at 1 h, SIF with pancreatin pH 6.8, 2 μg/mL, 37° C.
[12] = simulated gastric fluid, at 1 h
[13] = simulated intestinal fluid, at 1 h
[14] = % @ 1 h (remaining) in simulated gastric fluid
[15] = % @ 1 h (remaining) in human plasma
[16] = % @ 1 h (remaining) in simulated intestinal fluid

Structure (SMILES): CC(C)OCCn1c(=S)[nH]c(=O)c2c1ccn2COC(=O)CCNC(=O)[C@@H](N)C(C)C.O=C(O)C(F)(F)F [Example 14]
Papp at 90 min, 10 µM [1, 4]: < 0.203 ×10⁻⁶ cm/s | SGF [2, 5]: 95% remaining | human Plasma stability (Plasma Stability; [6]): 55% remaining | SIF [3, 7]: 84% remaining

Structure (SMILES): COC(=O)[C@H](CCCCN)NC(=O)OCn1ccc2c1c(=O)[nH]c(=S)n2CCOC(C)C.O=C(O)C(F)(F)F [Example 110, trifluoroacetic acid methyl (2S)-6-amino-2-{[{{4-oxo-1-[2-(propan-2-yloxy)ethyl]-2-sulfanylidene-1H,2H,3H,4H,5H-pyrrolo[3,2-d]pyrimidin-5-yl}methoxy)carbonyl]amino}hexanoate]
Papp at 90 min, 10 µM [1, 8]: 0.142 ×10⁻⁶ cm/s | SGF [2, 9]: 81% | human Plasma stability (Plasma Stability; [10]): 62% | SIF [3, 11]: 45%

Structure (SMILES): CC(C)OCCn1c(=S)[nH]c(=O)c2c1ccn2COC(=O)CCCCNC(=O)OC(C)(C)C [Example 7, {4-oxo-1-[2-(propan-2-yloxy)ethyl]-2-sulfanylidene-1H,2H,3H,4H,5H-pyrrolo[3,2-d]pyrimidin-5-yl}methyl 5-{[(tert-butoxy)carbonyl]amino}pentanoate]
Papp at 90 min, 10 µM [1, 8]: 14.7 ×10⁻⁶ cm/s | SGF [2, 9]: 66% | human Plasma stability (Plasma Stability; [10]): 4% | SIF [3, 11]: 40%

Structure (SMILES): CC(C)C[C@@H](NC(=O)OC(C)(C)C)C(=O)OCn1c(=O)c2c(ccn2COC(=O)[C@@H](CC(C)C)NC(=O)OC(C)(C)C)n(CCOC(C)C)c1=S [Example 319, [3-({[(2R)-2-{[(tert-butoxy)carbonyl]amino}-4-methylpentanoyl]oxy}methyl)-4-oxo-1-[2-(propan-2-yloxy)ethyl]-2-sulfanylidene-1H,2H,3H,4H,5H-pyrrolo[3,2-d]pyrimidin-5-yl]methyl (2R)-2-{[(tert-butoxy)carbonyl]amino}-4-methylpentanoate]
Papp at 90 min, 10 µM ([1]; Caco-2, pH 7.4): 10.5 ×10⁻⁶ cm/s | SGF ([2]; % remaining @ 1 h): 34%@ 1 h | human Plasma stability (Plasma Stability; % remaining @ 1 h): 42%@ 1 h | SIF ([3]; % remaining @ 1 h): 0%@ 1 h

Structure (SMILES): CCOC(=O)N1CCCC1C(=O)NCCC(=O)OCn1ccc2c1c(=O)[nH]c(=S)n2CCOC(C)C.O=C(O)C(F)(F)F (stereo not shown) [Example 66]
Papp at 90 min, 10 µM [1, 4]: 0.736 ×10⁻⁶ cm/s | SGF [2, 5]: 96% remaining | human Plasma stability (Plasma Stability; [6]): 75% remaining | SIF [3, 7]: 80% remaining

Structure (SMILES): COC(=O)N1CCCC1C(=O)NCCCCC(=O)OCn1ccc2c1c(=O)[nH]c(=S)n2CCOC(C)C.O=C(O)C(F)(F)F (stereo not shown) [Example 61]
Papp at 90 min, 10 µM [1, 4]: 0.971 ×10⁻⁶ cm/s | SGF [2, 5]: 98% remaining | human Plasma stability (Plasma Stability; [6]): 0% remaining | SIF [3, 7]: 92% remaining

Papp at 90 min, 10 µM [1, 4]: 23.5 ×10⁻⁶ cm/s | SGF [2, 12]: 99% remaining | human Plasma stability (Plasma Stability; human plasma, at 1 h): 96% remaining | SIF [3, 13]: 98% remaining
Structure (SMILES): Cc1ccc(N(C)C(=O)OCSc2nc(=O)c3[nH]ccc3n2CCOC(C)C)cc1 [Example 248]

Structure (SMILES): CC(C)OCCn1c(=S)[nH]c(=O)c2c1ccn2COC(=O)CCNC(=O)[C@@H](NC(=O)OC(C)(C)C)[C@@H](C)O.O=C(O)C(F)(F)F [Example 36]
Papp at 90 min, 10 µM [1, 4]: 0.835 ×10⁻⁶ cm/s | SGF [2, 5]: 95% remaining | human Plasma stability (Plasma Stability; [6]): 79% remaining | SIF [3, 7]: 88% remaining

Structure (SMILES): CC(C)OCCn1c(=S)[nH]c(=O)c2c1ccn2COC(=O)CCCCNC(=O)[C@H](CO)NC(=O)OC(C)(C)C.O=C(O)C(F)(F)F [Example 41]
Papp at 90 min, 10 µM [1, 4]: 1.15 ×10⁻⁶ cm/s | SGF [2, 5]: 78% remaining | human Plasma stability (Plasma Stability; [6]): 21% remaining | SIF [3, 7]: 87% remaining

Papp at 90 min, 10 µM [1, 4]: 8.42 ×10⁻⁶ cm/s | SGF [2, 14]: 79% @ 1 h | human Plasma stability (Plasma Stability; [15]): 0% @ 1 h | SIF [3, 16]: 83% @ 1 h
Structure (SMILES): CC(=O)OCn1ccc2c1c(=O)[nH]c(=S)n2CCOC(C)C [Example 159]

Papp at 90 min, 10 µM [1, 8]: 0.24 ×10⁻⁶ cm/s | SGF [2, 9]: 98% | human Plasma stability (Plasma Stability; [10]): 0% | SIF [3, 11]: 17%
Structure (SMILES): CC(C)OCCn1c(=S)[nH]c(=O)c2c1ccn2COC(=O)[C@@H]1CCC(=O)N1 [Example 86, {4-Oxo-1-[2-(propan-2-yloxy)ethyl]-2-sulfanylidene-1H,2H,3H,4H,5H-pyrrolo[3,2-d]pyrimidin-5-yl}methyl(2S)-5-oxopyrrolidine-2-carboxylate]

Structure (SMILES): CC(C)OCCn1c(=S)n(COCC[Si](C)(C)C)c(=O)c2c1ccn2COCC[Si](C)(C)C [Example 71, 1-[2-(propan-2-yloxy)ethyl]-2-sulfanylidene-3,5-bis({[2-(trimethylsilyl)ethoxy]methyl})-1H,2H,3H,4H,5H-pyrrolo[3,2-d]pyrimidin-4-one]
Papp at 90 min, 10 µM [1, 8]: 0.178 ×10⁻⁶ cm/s | SGF [2, 9]: 98% | human Plasma stability (Plasma Stability; [10]): 58% | SIF [3, 11]: 88%

Papp at 90 min, 10 µM [1, 4]: 9.47 ×10⁻⁶ cm/s | SGF [2, 5]: 90% remaining | human Plasma stability (Plasma Stability; [6]): 53% remaining | SIF [3, 7]: 78% remaining
Structure (SMILES): CC[C@H](C)[C@H](NC(=O)OC(C)(C)C)C(=O)NCCCCC(=O)OCn1ccc2c1c(=O)[nH]c(=S)n2CCOC(C)C [Example 33]

Papp at 90 min, 10 µM [1, 4]: 2.79 ×10⁻⁶ cm/s | SGF [2, 14]: 73% @ 1 h | human Plasma stability (Plasma Stability; [15]): 1% @ 1 h | SIF [3, 16]: 0% @ 1 h
Structure (SMILES): CCCC(=O)OCSc1nc(=O)c2c(ccn2COC(=O)CCC)n1CCOC(C)C [Example 155]

Structure (SMILES): C=CCCN(C)C(=O)OCSc1nc(=O)c2c(ccn2COC(=O)N(C)CCC=C)n1CCOC(C)C.O=C(O)C(F)(F)F [Example 180]
Papp at 90 min, 10 µM [1, 4]: 25.9 ×10⁻⁶ cm/s | SGF [2, 14]: 99% @ 1 h | human Plasma stability (Plasma Stability; [15]): 99% @ 1 h | SIF [3, 16]: 82% @ 1 h

Papp at 90 min, 10 µM ([1]; Caco-2, pH 7.4, no unit printed at the place (tables the 9th table and the 10th table have no head)): 11.5 ×10⁻⁶ cm/s | SGF [2, 9]: 93% | human Plasma stability (Plasma Stability; [10]): 86% | SIF [3, 11]: 92%
Structure (SMILES): CC(C)OCCn1c(=S)[nH]c(=O)c2c1ccn2COC(=O)N[C@H](C(=O)OC(C)(C)C)C(C)C [Example 107, tert-butyl (2S)-3-methyl-2-{[{{4-oxo-1-[2-(propan-2-yloxy)ethyl]-2-sulfanylidene-1H,2H,3H,4H,5H-pyrrolo[3,2-d]pyrimidin-5-yl}methoxy)carbonyl]amino}butanoate]

Papp at 90 min, 10 µM [1, 4]: 28.4 ×10⁻⁶ cm/s | SGF [2, 12]: 89% remaining | human Plasma stability (Plasma Stability; human plasma, at 1 h): 98% remaining | SIF [3, 13]: 95% remaining
Structure (SMILES): CC(C)OCCn1c(SCOC(=O)N(C)c2ccccc2Cl)nc(=O)c2c1ccn2COC(=O)N(C)c1ccccc1Cl [Example 249]

Papp at 90 min, 10 µM [1, 8]: 6.6 ×10⁻⁶ cm/s | SGF [2, 9]: 94% | human Plasma stability (Plasma Stability; [10]): 73% | SIF [3, 11]: 76%
Structure (SMILES): CC(C)OCCn1c(=S)n2c(=O)c3c1ccn3COC(=O)C(C)(C)CCCCC(C)(C)C(=O)OC2 [Example 118, 5,5,10,10-Tetramethyl-16-[2-(propan-2-yloxy)ethyl]-15-sulfanylidene-3,12-dioxa-1,14,16-triazatricyclo[12.5.2.0^{17,20}]henicosa-17(20),18-diene-4,11,21-trione]

Structure (SMILES): CC(C)OCCn1c(=S)[nH]c(=O)c2c1ccn2COC(=O)CCNC(=O)CN(C)C(=O)CNC(=O)OC(C)(C)C.O=C(O)C(F)(F)F [Example 58]
Papp at 90 min, 10 µM [1, 4]: 0.287 ×10⁻⁶ cm/s | SGF [2, 5]: 77% remaining | human Plasma stability (Plasma Stability; [6]): 49% remaining | SIF [3, 7]: 84% remaining

Structure (SMILES): CNCC(=O)NCCCCC(=O)OCn1ccc2c1c(=O)[nH]c(=S)n2CCOC(C)C.O=C(O)C(F)(F)F [Example 55]
Papp at 90 min, 10 µM [1, 4]: 0.244 ×10⁻⁶ cm/s | SGF [2, 5]: 100% | human Plasma stability (Plasma Stability; [6]): 1% remaining | SIF [3, 7]: 98% remaining

Structure (SMILES): CC(C)OCCn1c(=S)[nH]c(=O)c2c1ccn2COC(=O)[C@@H](NC(=O)OC(C)(C)C)C(C)C [Example 294, {4-oxo-1-[2-(propan-2-yloxy)ethyl]-2-sulfanylidene-1H,2H,3H,4H,5H-pyrrolo[3,2-d]pyrimidin-5-yl}methyl (2S)-2-{[(tert-butoxy)carbonyl]amino}-3-methylbutanoate]
Papp at 90 min, 10 µM ([1]; Caco-2, pH 7.4): 26.8 ×10⁻⁶ cm/s | SGF ([2]; % remaining @ 1 h): 98% @ 1 h | human Plasma stability (Plasma Stability; % remaining @ 1 h): 98% @ 1 h | SIF ([3]; % remaining @ 1 h): 3% @ 1 h

Structure (SMILES): C=CCN(C)C(=O)OCSc1nc(=O)c2c(ccn2COC(=O)N(C)CC=C)n1CCOC(C)C.O=C(O)C(F)(F)F [Example 178]
Papp at 90 min, 10 µM [1, 4]: 19.4 ×10⁻⁶ cm/s | SGF [2, 14]: 99% @ 1 h | human Plasma stability (Plasma Stability; [15]): 86% @ 1 h | SIF [3, 16]: 75% @ 1 h

Papp at 90 min, 10 µM ([1]; Caco-2, pH 7.4, Caco-2 monolayer, the 17th table): 35.1 ×10⁻⁶ cm/s | SGF ([2]; % remaining at 1 h in simulated gastric fluid, the 17th table): 91% remaining | human Plasma stability (Plasma Stability; % remaining at 1 h in human plasma, the 17th table): 97% remaining | SIF ([3]; % remaining at 1 h in simulated intestinal fluid, the 17th table): 83% remaining
Structure (SMILES): CCC(C)NC(=O)n1ccc2c1c(=O)[nH]c(=S)n2CCOC(C)C (stereo not shown) [Example 226]

Papp at 90 min, 10 µM [1, 4]: 8.61 ×10⁻⁶ cm/s | SGF [2, 5]: 92% remaining | human Plasma stability (Plasma Stability; [6]): 91% remaining | SIF [3, 7]: 61% remaining
Structure (SMILES): CC(C)C[C@H](NC(=O)OC(C)(C)C)C(=O)NCCC(=O)OCn1ccc2c1c(=O)[nH]c(=S)n2CCOC(C)C [Example 27]

Papp at 90 min, 10 µM [1, 4]: 4.03 ×10⁻⁶ cm/s | SGF [2, 14]: 82% @ 1 h | human Plasma stability (Plasma Stability; [15]): 9% @ 1 h | SIF [3, 16]: 0% @ 1 h
Structure (SMILES): CCCC(=O)OCn1ccc2c1c(=O)[nH]c(=S)n2CCOC(C)C [Example 154]
